Laboratory results reported in paper PMC9788418, “Design, Synthesis and Biological Evaluation of Syn and Anti-like Double Warhead Quinolinones Bearing Dihydroxy Naphthalene Moiety as Epidermal Growth Factor Receptor Inhibitors with Potential Apoptotic Antiproliferative Action” (Molecules, 2022).
“And” between values parts separate entries of the source, which are not always exact repeats. Equal values may be shown once.

What was measured:
Cytochrome C = Cytochrome C assay; type: cell-based, human; conditions: for Cytochrome C Conc: A-549; for Cytochrome C Fold Change: A-549, vs control
Experimental: The concentration of Cytochrome c in a cell is crucial for activating caspases and starting the intrinsic apoptosis process. […]
(§1) plate cover and incubate at room temperature, on a microplate shaker at 100 rpm if available, for 1 hour. Remove plate cover and empty the wells. Wash microwell strips 3 times as described in step 2.
(§2) Proceed to the next step. Pipette 100 μl of mixed TMB Substrate Solution to all wells, including the […]
(§3) available on a rotator set at 100 rpm. Avoid direct exposure to intense light. The point, at which the substrate reaction is stopped, is often determined by the ELISA reader. Many ELISA readers record absorbance only up to 2.0 O.D. Therefore, the color development within individual microwells must be watched by the person running the assay and the substrate reaction stopped before positive wells are no longer properly detectable. Stop the enzyme reaction by quickly pipetting 100 μL of Stop Solution into each well, including the blank wells. It is important that the Stop Solution is spread quickly and uniformly throughout the microwells to completely inactivate the enzyme. Results must be read immediately after the Stop Solution is added or within one hour if the microwell strips are stored at 2 - 8°C in the dark. Read absorbance of each microwell on a spectrophotometer using 450 nm as the primary wave length.
4.2.6. Cytochrome C assay […]
cytochrome C, and lysed with Cell Extraction Buffer. This lysate was diluted in Standard Diluent Buffer over the range of the assay and measured for cytochrome C content. (Cells are Plated in cells/well in a volume of 100µl complete growth medium + 100 µl of the tested compound + 50 µl of 1X biotin conjugated antibody+ 100 µl of 1X streptavidin-HRP+ 100 µL TMB substrate soln of per well in a 96-well plate for 24 hours before assay).
4.3. Statistical analysis
Computerized Prism 5 program was used to statistically analyzed data using one-way ANOVA test followed by Tukey’s as post ANOVA for multiple comparison at P ≤.05. Data were presented as […]

EGFR = EGFR (Homo sapiens, UniProt P00533); assay: EGFR inhibitory assay (EGFR-TK, DELFIA/time-resolved fluorometry)
Experimental: EGFR-TK assay was performed to evaluate the inhibitory potency of novel compounds against
EGFR. Baculoviral expression vectors including pBlueBacHis2B and pFASTBacHTc were used
5ʹ upstream to the EGFR sequence comprised a sequence that encoded (His)6. Sf-9 cells were infected for 72h for protein expression. The pellets of Sf-9 cells were solubilized in a buffer containing sodium vanadate (100 µM), aprotinin (10 µg/mL), triton (1%), HEPES buffer (50mM), ammonium molybdate (10 µM), benzamidine HCl (16 µg/mL), NaCl (10 mM), leupeptin (10 µg/mL) and pepstatin (10 µg/mL) at 0°C for 20 min at pH 7.4, followed by centrifugation for 20 min.
To eliminate the non-specifically bound material, a Ni-NTA super flow packed column was used to pass through and wash the crude extract supernatant first with 10 mM and then with 100 mM imidazole. Histidine-linked proteins were first eluted with 250 and then with 500 mM imidazole after (1 picture or pasted object on this page, not shown here)
dialysis against NaCl (50 mM), HEPES (20 mM), glycerol (10%) and 1 µg/mL each of aprotinin, leupeptin and pepstatin for 120 min. The purification was performed either at 4 °C or on ice. To
record autophosphorylation level, EGFR kinase assay was carried out based on DELFIA/Time-
Resolved Fluorometry. The compounds were first dissolved in DMSO absolute, after dilution to
Each compound (10 µL) was incubated
with recombinant enzyme (10 µL, 5 ng for EGFR, 1:80 dilution in 100 mM HEPES) for 10 min at
25 °C, after the addition of 5X buffer (10 µL, containing 2 mM MnCl2, 100 µM Na3VO4, 20 mM HEPES and 1 mM DTT) and ATP-MgCl2 (20 µL, containing 0.1 mM ATP and 50 mM MgCl2) and
incubation for 1h. The negative and positive controls were included in each plate by the incubation
of enzyme either with or without ATP-MgCl2. The liquid was removed after incubation and the plates
were washed thrice using wash buffer. Europium-tagged antiphosphotyrosine antibody (75 µL, 400
ng) was added to each well followed by incubation of 1h and then washing of the plates using buffer.
The enhancement solution was added to each well and the signal was recorded at excitation and
The autophosphorylation percentage inhibition by compounds was calculated using the following equation:

Bcl-2 = Bcl-2 inhibition assay; type: cell-based, human; conditions: for Bcl-2 Conc: A-549; for Bcl-2 Fold Reduction: A-549, vs control
Experimental: 4.2.5. Bcl-2inhibition assay
Mix all reagents thoroughly without foaming before use. Wash the microwells twice with approximately 300 μL Wash Buffer per well with thorough aspiration of microwell contents between washes. Take caution not to scratch the surface of the microwells. After the last wash, empty the wells and tap microwell strips on absorbent pad or paper towel to remove excess Wash Buffer. Use the microwell strips immediately after washing or place upside down on a wet absorbent paper for not […]
longer than 15 minutes. […] Add 100 μL of Sample Diluent in duplicate to all standard wells and to the blank wells. Prepare standard (1:2 dilution) in duplicate ranging from 32 ng/mL to 0.5 ng/mL. Add 100 μL of Sample Diluent, in duplicate, to the blank wells. Add 80 μL of Sample Diluent, in duplicate, to the sample wells. Add 20 μL of each Sample, in duplicate, to the designated wells. Add 50 μL of diluted biotin-conjugate to all wells, including the blank wells. Cover […]
Remove plate cover and empty the wells. […]
as §1, §2
as §3, with “length. […]” for “length.”

Bax = Bax activation assay; type: cell-based, human; conditions: for Bax Conc: A-549; for Bax Fold Change: A-549, vs control untreated cells
Experimental: 8, and lysed with Cell Extraction Buffer. This lysate was diluted in Standard Diluent Buffer over the range of the assay and measured for human active caspase-8 content. (cells are Plated in a density of 1.2 – 1.8 × 10,000 cells/well in a volume of 100µl complete growth medium + 100 ul of the tested compound per well in a 96-well plate for 24 hours before the enzyme assay for […].). […]
4.2.4. Bax activation assay
Bring all reagents, except the human Bax-α Standard, to room temperature for at least 30 minutes prior to opening. The human Bax-α Standard solution should not be left at room temperature for more than 10 minutes. All standards, controls and samples should be run in duplicate. Refer to the Assay Layout Sheet to determine the number of wells to be used and put any remaining wells with the desiccant back into the pouch and seal the ziploc. Store unused wells at 4 °C. Pipet 100 μL of Assay Buffer into the S0 (0 pg/mL standard) wells. Pipet 100 μL of Standards #1 through #6 into the appropriate wells. Pipet 100 μL of the Samples into the appropriate wells. Tap the plate gently to mix the contents. Seal the plate and incubate at room temperature on a plate shaker for 1 hour at ~500 rpm. Empty the contents of the wells and wash by adding 400 μL of wash solution to every well.
Repeat the wash 4 more times for a total of 5 washes. After the final wash, empty or aspirate the wells and firmly tap the plate on a lint free paper towel to remove any remaining wash buffer. Pipet 100 μL of yellow Antibody into each well, except the Blank. Seal the plate and incubate at room temperature on a plate shaker for 1 hour at ~500 […]
wells and firmly tap the plate on a lint free paper towel to remove any remaining wash buffer. Add […]
100 μL of blue Conjugate to each well, except the Blank. Seal the plate and incubate at room temperature on a plate shaker for 30 minutes at ~500 rpm. Empty the contents of the wells and wash by adding 400 μL of wash solution to every well. Repeat the wash 4 more times for a total of 5 washes. After the final wash, empty or aspirate the wells and firmly tap the plate on a lint free paper towel to remove any remaining wash buffer. Pipet 100 μL of Substrate Solution into each well.
Incubate for 30 minutes at room temperature on a plate shaker at ~500 rpm. Pipet 100 μL Stop Solution to each well. Blank the plate reader against the Blank wells, read the optical density at 450 nm. Calculate the average net Optical Density (OD) bound for each standard and sample by subtracting the average Blank OD from the average OD for each standard and sample. Using linear graph paper, plot the Average Net OD for each standard versus Bax concentration in each standard.
Approximate a straight line through the points. The concentration of Bax in the unknowns can be determined by interpolation. […]

EGFR, sequence (P00533 669-1210): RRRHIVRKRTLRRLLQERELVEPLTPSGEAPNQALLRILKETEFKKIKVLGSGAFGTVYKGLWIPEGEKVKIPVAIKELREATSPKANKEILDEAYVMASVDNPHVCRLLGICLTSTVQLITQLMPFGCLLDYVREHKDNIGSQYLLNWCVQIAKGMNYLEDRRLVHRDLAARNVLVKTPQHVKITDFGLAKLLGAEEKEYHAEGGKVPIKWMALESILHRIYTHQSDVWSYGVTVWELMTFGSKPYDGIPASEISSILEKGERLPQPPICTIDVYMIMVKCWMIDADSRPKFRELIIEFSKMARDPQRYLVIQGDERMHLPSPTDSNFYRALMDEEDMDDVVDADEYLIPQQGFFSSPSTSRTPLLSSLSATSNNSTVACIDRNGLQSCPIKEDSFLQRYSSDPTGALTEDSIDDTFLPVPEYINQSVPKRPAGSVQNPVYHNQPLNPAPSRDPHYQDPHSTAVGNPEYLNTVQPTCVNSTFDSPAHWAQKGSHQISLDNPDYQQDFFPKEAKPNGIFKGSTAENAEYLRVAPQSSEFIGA

SMILES	Cytochrome C Conc (Cytochrome C) [ng/mL]	Cytochrome C Fold Change (Cytochrome C)	IC50 (EGFR) [nM]	Bcl-2 Conc (Bcl-2) [ng/mL]	Bcl-2 Fold Reduction (Bcl-2)	Bax Conc (Bax)	Bax Fold Change (Bax)	fold less effective than erlotinib (EGFR IC50) (EGFR; relative to erlotinib)
O=c1cc(-n2cc(COc3cccc4cccc(OCc5cn(-c6cc(=O)[nH]c7ccccc67)nn5)c34)nn2)c2ccccc2[nH]1 [Compound 4a, 4,4′-(((naphthalene-1,8-diylbis(oxy))bis(methylene))bis(1H-1,2,3-triazole-4,1-diyl))-bis-(quinolin-2(1H)-one)]	0.80	16	64 ± 6	1.05	5	298 pg/mL and 298.60 pg/mL	36	–
Cc1ccc2[nH]c(=O)cc(-n3cc(COc4cccc5cccc(OCc6cn(-c7cc(=O)[nH]c8ccc(C)cc78)nn6)c45)nn3)c2c1 [Compound 4b, 4,4′-(((naphthalene-1,8-diylbis(oxy))bis(methylene))bis(1H-1,2,3-triazole-4,1-diyl))-bis(6-methylquinolin-2(1H)-one)]	0.70	14	93 ± 9	1.17	4	284 pg/mL and 284.50 pg/mL	34	roughly 1.3 fold
